Reference: patent US20110190162A1, “METHOD OF NUCLEIC ACID DELIVERY INTO THREE-DIMENSIONAL CELL CULTURE ARRAYS” (priority 2009, published 2011)

Experiments:
[1] = test system: parent HepG2 cells (control); assay: Acetaminophen toxicity, cell viability; format: cell-based; settings: Homo sapiens, 24 h exposure, read-out: calculated IC50 (cell viability)
[2] = Metabolism-induced toxicity assay, cell viability; format: cell-based; settings: human, HepG2 cells infected with Ad-3A4 (expressing CYP3A4); HepG2 transfected with Ad-3A4 at 40 MOI, 24 h exposure; read-out: calculated IC50 (cell viability)
Procedure: Metabolism-induced toxicity assay was performed with acetaminophen on HepG2 cells expressing CYP3A4. After transfecting HepG2 cells with Ad-3A4 at 40 MOI, HepG2 cells were exposed to acetaminophen at varying concentrations for 24 h. HepG2 cell viability decreased as acetaminophen concentration increased.

**Q.** For CC(=O)Nc1ccc(O)cc1 [acetaminophen], which IC50 [1] is on record?
**A.** The IC50 was 17.5 mM.

**Q.** What about the IC50 at 24 h [2] of the same molecule?
**A.** The IC50 at 24 h was 7.3 mM.
